From patent US20140045809A1, “CORROLES FOR NEUROPROTECTION AND NEURORESCUE” (priority 2008, published 2014) come the findings set out here.

In data set [1] the test system is NSC-34 G93A cells. As to the kind of experiment: Cell culture model of familial ALS, NSC-34 cells expressing mutant G93A-SOD1. In kind it is cell-based, mouse. The settings on record: 48 h induction; even at a concentration as low as 0.5 μM. The method, then: Mutant-superoxide dismutase (G93A-SOD1) is associated with familial amyotrophic lateral sclerosis (FALS). A cell culture model of FALS was implemented by stably transfecting mouse motoneuronal NSC-34 cells or SH-SY5Y cells, to express mutant G93A-SOD1 at levels approximating those seen in the human disease. NSC-34 cells or SH-SY5Y cells were incubated in Dulbecco's modified Eagle's/F-12 medium supplemented with 10% FCS tetracycline-free (FCS Tet-free; Clontech), at 37° C. in an atmosphere of 5% CO2 in air. These cell lines are stably transfected with the pTet-ON plasmid (Clontech, Palo Alto, Calif.) coding for the reverse tetracycline controlled transactivator (rtTA). Induction of mutant SOD1 expression was obtained by shifting nonconfluent cultures into growth medium containing 1% N2 supplement (Invitrogen, Carlsbad, Calif.) and […] doxocyclin for 48 h in the presence or absence of corrole 1C-Fe and 5C-Fe.

The target in data set [2] is albumin (Homo sapiens, UniProt P02768). As to the kind of experiment: Binding of corrole complexes to albumin. The settings on record: preliminary experiments. From the text: (§1) Issues regarding biodistribution, transport mechanisms, accumulation in specific organs, and the eventual elimination of administered compounds are among the prime concerns when it comes to real life utilization of potential drugs. This can be addressed by several and quite different means, including in vitro, in vivo and ex-vivo examinations. One way to predict distribution is via examination of the binding of the corroles to circulating proteins that might act as transporters, similar to experiment performed previously by the inventors with metal complexes of corrole 1C (Scheme 1), which spontaneously form tightly bound non-covalent bioconjugates with HDL (Haber et al., 2007), albumin (Mahammed et al., 2004), and transferrin (Haber and Gross. 2007) (listed in increasing order of affinity), as well as with semi-synthetic proteins (Agadjanian et al., 2006). […] A more direct approach relies on the strong fluorescence of corroles that are not chelated by transition metals (no metal such as in corroles 1C and 2C, or using corrole Ga/Al complexes such as 1C-Ga). This feature is used for testing cell entry via confocal microscopy (Agadjanian et al., 2006), without the need of attaching a fluorescent tag. Furthermore, it may even be used for whole animal imaging purposes, as shown in Example 4 hereinabove. […]

In data set [3] the target is transferrin (Homo sapiens, UniProt P02787). As to the kind of experiment: Binding of corrole complexes to transferrin. The settings on record: preliminary experiments.
Text: as §1

Data set [4] deals with SH-SY5Y cells. In kind it is cell-based. The settings on record: up to 50 μM; data not shown.

transferrin, sequence (P02787 20-698, species assumed): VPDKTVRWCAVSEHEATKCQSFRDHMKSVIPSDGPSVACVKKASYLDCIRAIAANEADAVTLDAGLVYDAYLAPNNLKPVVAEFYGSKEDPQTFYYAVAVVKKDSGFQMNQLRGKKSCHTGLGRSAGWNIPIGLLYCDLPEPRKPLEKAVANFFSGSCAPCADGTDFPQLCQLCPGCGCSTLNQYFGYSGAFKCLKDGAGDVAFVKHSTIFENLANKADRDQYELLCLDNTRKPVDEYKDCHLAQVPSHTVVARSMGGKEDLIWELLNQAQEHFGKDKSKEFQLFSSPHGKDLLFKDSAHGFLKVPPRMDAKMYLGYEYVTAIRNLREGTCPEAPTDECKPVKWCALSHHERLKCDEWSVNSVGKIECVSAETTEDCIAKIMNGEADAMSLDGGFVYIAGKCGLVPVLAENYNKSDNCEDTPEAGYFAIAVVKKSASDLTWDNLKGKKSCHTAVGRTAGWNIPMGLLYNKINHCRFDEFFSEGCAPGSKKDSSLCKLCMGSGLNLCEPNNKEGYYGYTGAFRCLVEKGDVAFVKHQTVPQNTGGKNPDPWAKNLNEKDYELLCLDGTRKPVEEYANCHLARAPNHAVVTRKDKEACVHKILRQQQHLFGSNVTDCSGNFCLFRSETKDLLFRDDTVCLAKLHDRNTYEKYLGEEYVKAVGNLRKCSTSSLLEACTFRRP
albumin, sequence (P02768 25-609): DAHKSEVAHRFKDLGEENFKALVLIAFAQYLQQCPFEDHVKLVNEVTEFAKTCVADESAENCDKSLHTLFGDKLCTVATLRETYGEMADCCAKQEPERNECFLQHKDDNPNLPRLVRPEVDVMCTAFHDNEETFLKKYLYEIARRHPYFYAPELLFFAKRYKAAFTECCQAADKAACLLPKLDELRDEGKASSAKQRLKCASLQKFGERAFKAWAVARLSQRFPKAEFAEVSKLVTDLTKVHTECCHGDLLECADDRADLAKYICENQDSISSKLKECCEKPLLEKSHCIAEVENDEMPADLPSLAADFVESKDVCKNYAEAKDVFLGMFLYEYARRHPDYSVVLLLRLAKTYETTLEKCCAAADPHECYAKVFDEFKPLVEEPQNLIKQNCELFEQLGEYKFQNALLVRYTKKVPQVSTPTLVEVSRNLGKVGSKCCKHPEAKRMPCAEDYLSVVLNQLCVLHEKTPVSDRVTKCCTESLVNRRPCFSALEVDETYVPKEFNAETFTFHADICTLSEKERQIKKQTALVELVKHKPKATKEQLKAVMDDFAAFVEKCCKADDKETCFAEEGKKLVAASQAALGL

As to `O=S(=O)(O)c1cc2[n]3c1C(c1c(F)c(F)c(F)c(F)c1F)=C1C=CC4=[N+]1[Fe-]31[n]3c(cc(S(=O)(=O)O)c3-2)C(c2c(F)c(F)c(F)c(F)c2F)=c2ccc([n]21)=C4c1c(F)c(F)c(F)c(F)c1F` (stereo not shown) [1C-Fe, 2,17-bis(sulfonato)-5,10,15-tris(pentafluorophenyl)-corrolato iron(III)], the “cell viability of induced mutant cells” value in data set [1] is “significantly improved cell viability”.

As for `C[n+]1ccc(C2=C3C=CC4=[N+]3[Mn-]35[n]6c2ccc6-c2ccc([n]23)C(c2cc[n+](C)cc2)=c2ccc([n]25)=C4c2c(F)c(F)c(F)c(F)c2F)cc1.[I-].[I-]` (stereo not shown) [2C-Mn, 5,15-bis(4-N-methyl-pyridilium)-10-pentafluorophenyl-corrolato manganese(III) diiodide salt], the binding to albumin result in data set [2] is “do not bind to albumin”. Moreover, the binding to transferrin entry in data set [3] is “still do so for transferrin”. The “preventing H2O2-mediated cytotoxicity” value in data set [4] is on record as “not effective”.
